Results from ChEMBL document CHEMBL1201862, “PubChem BioAssay data set” (2004).
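Tested at 5 concentrations; 48 h exposure; 96-well plates; endpoints linearly interpolated, else capped at highest concentration. Abbreviation: GI50, concentration required for 50% inhibition of growth.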 The source made the active and inactive calls. Cut-off read from the data, not from the text of the source: active = GI50 up to about 1.1 µM and inactive = higher.

Key:
Test in all cases: inhibition of tumour cell growth, NCI panel, 48 h
786-0 = tested on: 786-0
A498 = tested on: A498
A549 = tested on: A549
ACHN = tested on: ACHN
CAKI-1 = tested on: CAKI-1
CCRF-CEM = tested on: CCRF-CEM
COLO 205 = tested on: COLO 205
DLD-1 = tested on: DLD-1
DMS-273 = tested on: DMS-273
EKVX = tested on: EKVX
HCC 2998 = tested on: HCC 2998
HCT-116 = tested on: HCT-116
HL-60 = tested on: HL-60
HOP-18 = tested on: HOP-18
HOP-62 = tested on: HOP-62
HT-29 = tested on: HT-29
K562 = tested on: K562
KM-20L2 = tested on: KM-20L2
KM12 = tested on: KM12
LOX IMVI = tested on: LOX IMVI
LXFL 529 = tested on: LXFL 529
M14 = tested on: M14
M19-MEL = tested on: M19-MEL
Malme-3M = tested on: Malme-3M
NCI-H226 = tested on: NCI-H226
NCI-H23 = tested on: NCI-H23
NCI-H460 = tested on: NCI-H460
NCI-H522 = tested on: NCI-H522
OVCAR-3 = tested on: OVCAR-3
OVCAR-4 = tested on: OVCAR-4
OVCAR-5 = tested on: OVCAR-5
OVCAR-8 = tested on: OVCAR-8
RPMI-8226 = tested on: RPMI-8226
RXF 393 = tested on: RXF 393
SF-268 = tested on: SF-268
SF-295 = tested on: SF-295
SF-539 = tested on: SF-539
SK-MEL-28 = tested on: SK-MEL-28
SK-MEL-5 = tested on: SK-MEL-5
SK-OV-3 = tested on: SK-OV-3
SN12C = tested on: SN12C
SNB-19 = tested on: SNB-19
SNB-75 = tested on: SNB-75
SNB-78 = tested on: SNB-78
TK-10 = tested on: TK-10
U-251 = tested on: U-251
UACC-257 = tested on: UACC-257
UACC-62 = tested on: UACC-62
UO-31 = tested on: UO-31
XF498 = tested on: XF498
DMS-114 = tested on: DMS-114
HCT-15 = tested on: HCT-15
HOP-92 = tested on: HOP-92
MOLT-4 = tested on: MOLT-4
SK-MEL-2 = tested on: SK-MEL-2
SR = tested on: SR
SW-620 = tested on: SW-620

Measured: GI50

CCOc1ccc(O)cc1[P+](c1ccccc1)(c1ccccc1)c1ccccc1
active: HL-60 0.501 µM | OVCAR-3 0.804 µM | UACC-257 0.647 µM
inactive: 786-0 7.24 µM | A498 11.7 µM | A549 4.69 µM | ACHN 16.2 µM | CAKI-1 8.24 µM | CCRF-CEM 1.56 µM | COLO 205 2.86 µM | DLD-1 4.14 µM | DMS-273 2.16 µM | EKVX 11.5 µM | HCC 2998 2.82 µM | HCT-116 2.19 µM | HOP-18 2.91 µM | HOP-62 8.41 µM | HT-29 2.85 µM | K562 1.49 µM | KM-20L2 2.46 µM | KM12 1.64 µM | LOX IMVI 2.59 µM | LXFL 529 1.37 µM | M14 4.45 µM | M19-MEL 3.05 µM | Malme-3M 3.65 µM | NCI-H226 1.64 µM | NCI-H23 1.67 µM | NCI-H460 3.24 µM | NCI-H522 1.14 µM | OVCAR-4 6.22 µM | OVCAR-5 2.66 µM | OVCAR-8 3.42 µM | RPMI-8226 3.5 µM | RXF 393 3.59 µM | SF-268 5.2 µM | SF-295 4.5 µM | SF-539 3.83 µM | SK-MEL-28 4.47 µM | SK-MEL-5 1.66 µM | SK-OV-3 6.53 µM | SN12C 3.13 µM | SNB-19 3.33 µM | SNB-75 4.5 µM | SNB-78 4.15 µM | TK-10 3.43 µM | U-251 2.54 µM | UACC-62 3.79 µM | UO-31 17.4 µM | XF498 1.16 µM

Cc1c(O)c(=O)ccn1CCO
> 100 µM: HCT-15
inactive: 786-0 > 100 µM | A498 > 100 µM | A549 > 100 µM | ACHN > 100 µM | CAKI-1 > 100 µM | CCRF-CEM > 100 µM | COLO 205 > 100 µM | DLD-1 > 100 µM | DMS-114 > 100 µM | DMS-273 > 10 µM | EKVX > 100 µM | HCT-116 > 100 µM | HL-60 > 100 µM | HOP-18 > 100 µM | HOP-62 > 100 µM | HOP-92 > 100 µM | HT-29 > 100 µM | K562 > 100 µM | KM-20L2 > 100 µM | KM12 > 100 µM | LOX IMVI > 100 µM | LXFL 529 > 100 µM | M14 > 100 µM | M19-MEL > 100 µM | MOLT-4 > 100 µM | Malme-3M > 100 µM | NCI-H226 > 100 µM | NCI-H460 > 100 µM | NCI-H522 > 100 µM | OVCAR-3 > 100 µM | OVCAR-4 > 100 µM | OVCAR-5 > 100 µM | OVCAR-8 > 100 µM | RPMI-8226 > 100 µM | RXF 393 > 100 µM | SF-268 > 100 µM | SF-295 > 100 µM | SK-MEL-28 > 100 µM | SK-MEL-2 > 100 µM | SK-MEL-5 > 100 µM | SK-OV-3 > 100 µM | SN12C > 100 µM | SNB-19 > 100 µM | SNB-75 > 100 µM | SNB-78 > 100 µM | SR > 100 µM | SW-620 > 100 µM | TK-10 > 100 µM | U-251 > 100 µM | UACC-257 > 100 µM | UACC-62 > 100 µM | UO-31 > 100 µM | XF498 > 100 µM
